In patent US6583248B1, “Polymerizable cyclodextrin derivatives” (American Dental Association Health Foundation, priority 1997, dated 2003):

Assay: Qualitative solubility tests (polarizing microscope, drop of liquid under cover glass)
Assay type: physicochemical
Excerpt: Qualitative solubility tests. A few granules of the βCD or MβCD were placed on a microscope slide, covered with a cover glass, and examined with a polarizing microscope while a drop of liquid was placed to flow under the cover glass. These liquids comprised solvents having a wide range of solubility parameters and a number of monomers that might be of interest in dental or industrial formulations.

| Molecule | subjective solubility in ethylene glycol dimethyl ether (ethylene glycol dimethyl ether) | subjective solubility in methanol | subjective solubility in water | subjective solubility in 1,3-glycerol dimethacrylate (1,3-glycerol dimethacrylate) | subjective solubility in benzyl methacrylate (benzyl methacrylate) | subjective solubility in hydroxyethyl methacrylate (hydroxyethyl methacrylate) | subjective solubility in triethyleneglycol dimethacrylate (triethyleneglycol dimethacrylate) | subjective solubility in undiluted BIS-GMA (undiluted BIS-GMA) |
| --- | --- | --- | --- | --- | --- | --- | --- | --- |
| OC[C@H]1O[C@@H]2O[C@H]3[C@H](O)[C@@H](O)[C@@H](O[C@H]4[C@H](O)[C@@H](O)[C@@H](O[C@H]5[C@H](O)[C@@H](O)[C@@H](O[C@H]6[C@H](O)[C@@H](O)[C@@H](O[C@H]7[C@H](O)[C@@H](O)[C@@H](O[C@H]8[C@H](O)[C@@H](O)[C@@H](O[C@H]1[C@H](O)[C@H]2O)O[C@@H]8CO)O[C@@H]7CO)O[C@@H]6CO)O[C@@H]5CO)O[C@@H]4CO)O[C@@H]3CO [βCD, beta-cyclodextrin, reference compound] | practically insoluble | practically insoluble | very slowly and only slightly soluble | – | – | – | – | – |
| fully methacrylated beta-cyclodextrin [MβCD] | – | very rapidly soluble (miscible) | practically insoluble | slowly soluble | promptly soluble | promptly soluble | slowly soluble | very slowly soluble |
